The values below come from patent US10301287B2, “Solid forms of cenicriviroc mesylate and processes of making solid forms of cenicriviroc mesylate” (Tobira Therapeutics, Inc., priority 2016, dated 2019).

A short description of data set [1]: Particle size according to USP <429> (laser light diffraction). The class given is physicochemical. How it is done: In some embodiments, the particle size and the particle size distribution (e.g., D90, D50, and D10) of a compound of the invention is determined by the laser light diffraction particle size distribution analysis. The particle size distribution is determined in accordance with the Fraunhofer light diffraction method. In this method, a coherent laser beam passes through the sample and the resulting diffraction pattern is focused on a multi-element detector. Since the diffraction pattern depends, among other parameters, on particle size, the particle size distribution can be calculated based on the measured diffraction pattern of the sample. In one embodiment, the particle size and the particle size distribution is measured according to U.S. Pharmacopeia (USP) <429>.
Particle Size: The particle size of the Micronized CVC mesylate Form A and the non-micronized CVC mesylate Form A were determined according to USP <429> as shown in Table 5.

Data set [2] is described as follows: Tapped bulk density, compressibility (Carr's) index and Hausner ratio. The class given is physicochemical. Details: Compressibility (Carr's) Index: scale not given here. As to conditions: for Interpretation (flow): from average compressibility index / Hausner ratio, Tables 7 and 8. How it is done:
Tapped Bulk Density: Tapped bulk density analysis was performed by pouring powder that had been sieved through a 1 mm Retsch stainless steel test sieve into a clean, dry pre-weighed 50 ml measuring cylinder. Powder was added to a total volume of 45-50 ml without compacting the sample. The mass and the initial volume (V0) were recorded. The sample was tapped using a Copley JV2000 tapped density tester using the following number of taps: 10, 490, 750 and sets of 1250 taps up to a total of 10,000 taps (Table 6). The volume was recorded after each set of taps and the sample was tapped until it reached constant volume (Vf). For these samples the 10,000 tap volume was used as Vf. Each sample was analysed in duplicate and the tapped density, compressibility index (Carr's index) and Hausner ratios were calculated using the formulae given below. The results from the duplicate analysis were averaged and the average result was used to assess the flow properties of the sample, using the parameters given in Table 7 (see “The Science of Dosage Form Design”, ME Aulton, 1988) and Table 8 (see USP method <1174>; see also, Carr, R. L. Evaluating Flow Properties of Solids. Chem Eng. 1965, 72, 163-168). Tapped Bulk Density=M/Vf. [formula] [formula]

Data set [3] in a line: Flow properties, Revolution Powder Analyser. It is filed as physicochemical. The settings on record: for Avalanche Angle / Avalanche Energy / Avalanche Time / Break Energy / Rest Angle: drum rotation speed 0.3 rpm; for Interpretation (flow): from rest angle, Table 10. On the procedure: Flow Properties: The flow properties of the samples were analysed using a Revolution Powder Analyser. Approximately 100 ml of the sample is placed in a sample drum which has two borosilicate glass sides. A motor turns two high precision silicone rollers, which in turn rotate the drum. A digital camera with the assistance of cold cathode backlight illumination takes images of the powder during the rotation process. Using a drum rotation speed of 0.3 rpm the time to avalanche, avalanche angle, avalanche energy, break energy and rest angle are measured. The software calculates these properties by analysing the images produced as the drum is rotated. The results of these properties can be used to assess the flow of the bulk powder. The interpretation of the rest angle (angle of repose) are given in Table 10 (see USP method <1174>; see also, Carr, R. L. Evaluating Flow Properties of Solids. Chem Eng. 1965, 72, 163-168).

The nature of data set [4]: BET surface area by multipoint nitrogen adsorption. It is filed as physicochemical. On the procedure:
Samples were analysed for BET (Brunauer-Emmett-Teller) surface area by a multipoint Nitrogen adsorption method (volumetric technique) using a Micromeritics TriStar 3020 instrument. The sample degassing was undertaken using a Micromeritics FlowPrep 060 applying flowing argon of 99.995% purity at a flow rate of approximately 20 cc/min for two hours at 20° C. Samples were degassed in their respective analysis tubes and transferred directly to the TriStar II immediately after the degassing period.

Data set [5] is described as follows: Intrinsic dissolution of compressed disc, Sirius T3. The class given is physicochemical. The settings on record: Britton-Robinson buffer, average pH 3.12 (Form A), room temperature, disc 7.07 mm^2. On the procedure: In one embodiment, the extrapolated intrinsic dissolution rate is measured using dissolution disc having 7.07 mm^2 which was compressed under high pressure, ca. 100 kg, using a constructed die. In one embodiment, a Sirius T3 was used as the dissolution apparatus containing 20 mL of test media with stirring speed of the paddle set to −30%. In some embodiments, the dissolution was measured at room temperature. In one embodiment, dissolution was measured over 1 pH sector by ultraviolet (UV) spectrometry. In one embodiment, the UV spectra of the dissolution solution was collected over time, for example every 30 seconds, and converted to concentration using the molar extinction coefficient (MEC) by UV-metric titration. In one embodiment, the intrinsic dissolution rate was calculated by dividing the extrapolated dissolution rate by the surface area of the dissolution disc. In one embodiment, the dissolution media was Britton-Robinson buffer solution. In one embodiment, the dissolution media was pH 3.1 Britton-Robinson buffer solution. In one embodiment, the dissolution media was pH 3.2 Britton-Robinson buffer solution. In another embodiment, the dissolution media was pH 4.7 Britton-Robinson buffer solution.
Intrinsic Dissolution: Appropriate weight of the pure test compound material were used to fill the cavity of the dissolution disc and compressed under high pressure, ca. 100 kg, using a constructed die. No additives were added, avoiding any external interference in the intrinsic dissolution profile. The resulting non-disintegrating disc was transferred to the dissolution apparatus, Sirius T3, containing 20 ml of the test media at room temperature. The stirring speed of the paddle was set to −30%. Dissolution was then measured over 1 pH sector. The solution spectra was collected every 30 seconds over 120 collection points and converted to concentration using the molar extinction coefficient (MEC) by UV-metric titration. Intrinsic dissolution rate was calculated by dividing the extrapolated dissolution rate by the surface area of the disk (7.07 mm^2). All analysis was performed in duplicate, with XRPD both prior to and post dissolution analysis, where possible.
Dissolution media, Britton-Robinson buffer solutions, were prepared by adding a specified volume of sodium hydroxide (0.2 M) to 200 ml of a solution of mixed acid, of 0.04 M with respect to phosphoric acid (2.72 ml/l), acetic acid (2.30 ml/l) and boric acid (2.476 g/l). The amount of sodium hydroxide used to prepare each buffer is outlined below:
pH 3.2 Britton-Robinson buffer: 38 ml of sodium hydroxide.

The conditions of data set [6]: cited from earlier work.
Setting [7] is: Rep. 1, M/Vf, Vf = volume after 10,000 taps.
The mark [8] stands for this setting: Rep. 2, M/Vf, Vf = volume after 10,000 taps.
The mark [9] stands for this setting: listed as Form A Non-micronized.

With `CCCCOCCOc1ccc(-c2ccc3c(c2)/C=C(/C(=O)Nc2ccc([S@@+]([O-])Cc4cncn4CCC)cc2)CCCN3CC(C)C)cc1` [Form A Micronised], in data set [1] (listed as Form A Micronized), the “Particle Size D10” value came out at 0.582 μm, the “Particle Size D50” value stood at 3.226 μm and the “Particle Size D90” value is 7.576 μm. In addition, in data set [2] (Mean of duplicate), the “Compressibility (Carr's) Index” value was determined as 28.6, the “Hausner Ratio” value was determined as 1.4 and the Tapped Bulk Density came out at 0.2 g/mL. Further, in data set [2] (Rep. 1), the “Compressibility (Carr's) Index” value amounted to 27.55 and the “Hausner Ratio” value was 1.42. The Tapped Bulk Density in data set [2] (setting [7]) came out at 0.16 g/mL. In data set [2] (Rep. 2), the “Compressibility (Carr's) Index” value was found to be 29.59 and the “Hausner Ratio” value was 1.40. In addition, the Tapped Bulk Density in data set [2] (setting [8]) worked out at 0.16 g/mL. In addition, the “Interpretation (flow)” value in data set [2] is “Poor (23-35)”. In data set [3], the “Avalanche Angle” value is given as 68.05 deg, the “Avalanche Energy” value was determined as 32.98 kJ/kg, the “Avalanche Time” value was 7.4 s and the “Break Energy” value is on record as 86.41 kJ/kg. For the same compound, in data set [3], the “Rest Angle” value came out at 44.85 deg and the “Interpretation (flow)” value is reported as “Passable (Passable - may hang up 41-45)”. In data set [4], the “BET constant, C” value is recorded as 37.98 and the Surface area is on record as 12.3614 ± 0.0440 m^2/g. Besides, the “Extrapolated Dissolution Rate” value in data set [5] (Disc 1, 3.14 (Form C)) is 7.20 µg/min. Moreover, the “Extrapolated Dissolution Rate” value in data set [5] (Disc 2, 3.15 (Form C)) is 9.43 µg/min.

With `CCCCOCCOc1ccc(-c2ccc3c(c2)/C=C(/C(=O)Nc2ccc([S@@+]([O-])Cc4cncn4CCC)cc2)CCCN3CC(C)C)cc1` [Cenicriviroc, (S,E)-8-(4-(2-Butoxyethoxy)phenyl)-1-(2-methylpropyl)-N-(4-(((1-propyl-1H-imidazol-5-yl)methyl)sulfinyl)phenyl)-1,2,3,4-tetrahydrobenzo[b]azocine-5-carboxamide], the Water solubility result in data set [6] is “poorly water-soluble”.

As for `CCCCOCCOc1ccc(-c2ccc3c(c2)/C=C(/C(=O)Nc2ccc([S+]([O-])Cc4cncn4CCC)cc2)CCCN3CC(C)C)cc1` (stereo not drawn) [Form A Non-micronised], in data set [1] (setting [9]), the “Particle Size D10” value worked out at 4.725 μm, the “Particle Size D50” value came out at 13.803 μm and the “Particle Size D90” value is reported as 65.910 μm. In addition, in data set [2] (Mean of duplicate), the “Compressibility (Carr's) Index” value was 35.4, the “Hausner Ratio” value is given as 1.5 and the Tapped Bulk Density was determined as 0.2 g/mL. In addition, in data set [2] (Rep. 1), the “Compressibility (Carr's) Index” value worked out at 34.34 and the “Hausner Ratio” value stood at 1.52. Further, the Tapped Bulk Density in data set [2] (setting [7]) amounted to 0.22 g/mL. Besides, in data set [2] (Rep. 2), the “Compressibility (Carr's) Index” value was 36.36 and the “Hausner Ratio” value was found to be 1.57. Further, the Tapped Bulk Density in data set [2] (setting [8]) came out at 0.21 g/mL. Also, the “Interpretation (flow)” value in data set [2] is given as “Very Poor”. Moreover, in data set [3], the “Avalanche Angle” value amounted to 72.60 deg, the “Avalanche Energy” value is given as 41.58 kJ/kg, the “Avalanche Time” value stood at 6.5 s and the “Break Energy” value worked out at 138.38 kJ/kg. In addition, in data set [3], the “Rest Angle” value stood at 50.75 deg and the “Interpretation (flow)” value was “Poor (Poor - must agitate, vibrate 46-55)”. Besides, in data set [4], the “BET constant, C” value came to 42.99 and the Surface area worked out at 3.0295 ± 0.0122 m^2/g.

For `CCCCOCCOc1ccc(-c2ccc3c(c2)/C=C(/C(=O)Nc2ccc([S+]([O-])Cc4cncn4CCC)cc2)CCCN3CC(C)C)cc1` (stereo not drawn) [Form C], in data set [2] (Mean of duplicate), the “Compressibility (Carr's) Index” value was found to be 6.0, the “Hausner Ratio” value is on record as 1.1 and the Tapped Bulk Density worked out at 0.5 g/mL. Also, in data set [2] (Rep. 1), the “Compressibility (Carr's) Index” value was 7.07 and the “Hausner Ratio” value is given as 1.08. In addition, in data set [2] (setting [7]), the Tapped Bulk Density stood at 0.49 g/mL. In data set [2] (Rep. 2), the “Compressibility (Carr's) Index” value was 5.00 and the “Hausner Ratio” value came to 1.05. In addition, in data set [2] (setting [8]), the Tapped Bulk Density stood at 0.48 g/mL. The “Interpretation (flow)” value in data set [2] was “Excellent (5-15)”. In addition, in data set [3] (Revolution Analyzer flowability measurements), the “Density and flow compared with the Form A samples” value was “more dense and flows better than the Form A samples”. Moreover, in data set [3], the “Avalanche Angle” value came to 51.55 deg, the “Avalanche Energy” value was found to be 20.28 kJ/kg, the “Avalanche Time” value amounted to 4.4 s and the “Break Energy” value is listed as 71.90 kJ/kg. In data set [3], the “Rest Angle” value came out at 41.30 deg and the “Interpretation (flow)” value is “Passable (Passable - may hang up 41-45)”. Also, in data set [4], the “BET constant, C” value is reported as 39.87 and the Surface area is given as 2.3071 ± 0.0058 m^2/g. Besides, in data set [5] (Disc 1, 3.14 (Form C)), the “Extrapolated Dissolution Rate” value was 10.80 µg/min. Besides, in data set [5] (Disc 2, 3.15 (Form C)), the “Extrapolated Dissolution Rate” value is 11.38 µg/min.
